Results as given in US20180185301A1, “PHARMACEUTICAL COMPOSITIONS COMPRISING POLYALKYLENE GLYCOL DERIVATIVES” (Symrise AG, priority 2015, published 2018).

Target: T1, PAR-2 (Homo sapiens, UniProt P55085)
T1 construct: human embryonic kidney 293 cells (HEK293) endogenously expressing PAR-2; endogenous in cells; host or cells: HEK293
T1 sequence (P55085 26-397): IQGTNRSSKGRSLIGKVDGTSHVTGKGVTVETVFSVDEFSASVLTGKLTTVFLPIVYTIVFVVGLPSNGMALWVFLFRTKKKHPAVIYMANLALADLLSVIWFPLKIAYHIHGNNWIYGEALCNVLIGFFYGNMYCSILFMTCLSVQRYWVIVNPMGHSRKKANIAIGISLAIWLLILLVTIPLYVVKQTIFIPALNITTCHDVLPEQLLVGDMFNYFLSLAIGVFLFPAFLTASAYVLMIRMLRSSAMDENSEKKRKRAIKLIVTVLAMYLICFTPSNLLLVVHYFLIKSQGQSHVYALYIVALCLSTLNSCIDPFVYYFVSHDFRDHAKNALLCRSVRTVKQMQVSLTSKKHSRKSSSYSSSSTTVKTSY
Assay: In vitro PAR-2 assay (trypsin-evoked calcium signal, Fluo-4)
Type: cell-based
Conditions: for IC50: HEK293 cells endogenously expressing PAR-2, in the presence of 4 nM trypsin, calcium imaging
Method: Assay Principle: A cellular in vitro assay was developed with human embryonic kidney 293 cells (HEK293) endogenously expressing PAR-2. The PAR-2 activating protease trypsin (EC50: ˜1 nM) was used as an agonistic stimulus with subsequent Fluo-4 dependent intracellular calcium detection (calcium imaging).
A cell-based calcium assay was applied for the identification of PAR-2 antagonistic effects of polyethylene glycol esters and polyethylene glycol ethers. Functional modulation of PAR-2 by the tested compounds was measured and quantified using the calcium sensitive fluorescent probe Fluo-4 AM on a fluorescence microplate reader. Activation of PAR-2 by an agonist (trypsin) led to an increase in the intracellular calcium concentration and thus an increase in fluorescence intensity.
Human embryonic kidney 293 cells (HEK293) endogenously expressing PAR-2 were cultured in DMEM (high glucose) supplemented with tetracycline-free FCS (10% v/v), L-glutamine (4 mM), blasticidin (15 μg/ml), zeocin (100 μg/ml) and puromycin (2 μg/ml) in a water-saturated atmosphere at 37° C. and 5% CO2.
Cells were seeded onto 96-well clear-bottom black-walled assay plates at a density of 45.000 cells per well in 100 μl of cell culture medium. Intracellular calcium increase in the living cells due to receptor activation was monitored 24 h later using the calcium sensitive fluorescent probe Fluo-4 AM on a fluorescence microplate reader (FlexStation® system, Molecular Devices). […]
Medium was replaced with 150 μl KH buffer supplemented with sulfinpyrazone (250 μM). Subsequently, 50 μl KH buffer supplemented with the screening compounds or control substances were added and the cells were incubated for 10 min. under assay conditions in the microplate reader. Changes in fluorescence were recorded at 37° C. after addition of 50 μl KH buffer supplemented with the PAR-2 agonist trypsin (final concentration of 4 nM under measurement conditions).
Calcium mobilization was quantified as the change of peak fluorescence (ΔF) over the baseline level (F). The data was analysed with the software of the microplate reader. […]

Row | Substance | IC50 | EC50 (HEK293 cells, Fluo-4 calcium detection, read-out: EC50 of PAR-2 activating protease (agonistic stimulus))
1 | PEG-9 Tridecylether | 65 µM | 
2 | trypsin [reference compound] |  | ~0.001 µM
3 | PEG-5 Isononanoate | 100 µM | 
